59 compounds from the METLIN SMRT retention time set (Domingo-Almenara et al. 2019) can be followed below.

Each structure is given as a SMILES string.

The nature of this data set: gradient 5% acetonitrile 3 min, to 50% in 2 min, to 85% in 15 min, held 3 min, 100 µL/min. Particulars: column: Zorbax Extend-C18 2.1 x 50 mm; eluents: water / acetonitrile, 0.1% formic acid. Put shortly:
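Using water and acetonitrile that each contained 0.1% formic acid, mixtures of ~100 pure standards were separated at 100 μL/min on a Zorbax Extend-C18 column (2.1 × 50 mm, 1.8 μm). The HPLC fed a quadrupole time-of-flight mass spectrometer working in positive and negative ionization mode, with dead and dwell volumes of 40 μL and 900 μL. Data were acquired over 3 months. Retention time was read from computationally picked adduct peaks after manual inspection of each.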
Consider `CCCc1nc(-c2c(C)cc(C)nc2NC(=O)c2ccc(F)cc2)no1`, for which the RP-LC retention time was found to be 864 s. In the case of `CC(C)C(=O)N1CCC(N2C[C@H](O)C[C@H]2C(=O)NC2CCCCC2)CC1` it was 603 s; in that of `COc1ccc(Cc2cnc(NC(=O)C3COc4ccccc4C3)s2)cc1` (centres undefined), 952 s. In the case of `Cn1cc(C(CNC(=O)Nc2ccccc2)c2cccnc2)c2ccccc21` (centres undefined) it was 680 s; in that of `CCc1ccc(S(=O)(=O)N2CCN(CCc3cn(CC)c4ncccc34)CC2)cc1`, 690 s; in that of `Cc1ccccc1-c1cc(C(=O)N2CCC(NC(=O)C3CCC(C)CC3)CC2)[nH]n1` (centres undefined), 811 s.

`COc1ccc(-c2ccc(=O)n(Cc3nc(-c4ccccc4)no3)n2)cc1OC`: the RP-LC retention time turned out to be 900 s. In the case of `CC1CCCN(CCCNC(=O)C(=O)Nc2ccc3nc4n(c(=O)c3c2)CCCCC4)C1` (centres undefined) it was 599 s; in that of `COc1ccc(NC(=O)c2c(C)oc3c2C2=NCCN2C=N3)cc1Cl`, 625 s; in that of `O=C(c1ccsc1)N1CCN(c2nnc3c(Cl)cccn23)CC1`, 635 s. As for `Cc1cccc(Sc2nccnc2N2CCC(C(=O)NCCCc3ccccc3)CC2)c1`, the figure is 1140 s. Regarding `CCN(CC)CCCNC(=O)c1ccc(-c2ccc3c(c2)CCN3C(C)=O)cc1`, the RP-LC retention time came to 612 s.

As to `Cc1nnc([C@@H]2CC(F)(F)CN2C(=O)COc2ccc(Cl)cc2)o1`, the RP-LC retention time is 779 s. In the case of `CC(C)NC(=O)N1CCC(OC2CCN(Cc3ccccc3)CC2)CC1` it was 564 s. Regarding `CC(CNC(=O)Cn1c(=O)n(C(C)C)c2ccc(S(=O)(=O)N3CCCC3)cc21)c1ccccc1` (centres undefined), the RP-LC retention time was determined as 905 s. `CCOc1ccc(CNC(=O)C2CCN(S(=O)(=O)c3ccc4c(c3)NC(=O)CO4)CC2)cc1` gave an RP-LC retention time of 880 s. `CC(C)NC(=O)c1ccc(OCC2CCN(C(=O)c3ccsc3)CC2)cc1` had an RP-LC retention time of 797 s. `Cc1ccc(NC(=O)Cn2c(C)cc(-c3nnc(C)o3)c2C)c(C)c1`: the RP-LC retention time stood at 802 s. In the case of `O=C(NCc1ccco1)C1CCN(c2nccnc2Sc2ccccc2)CC1` it was 883 s; in that of `Cc1ccc(NC(=O)C2CCN(S(C)(=O)=O)c3cc(Cl)ccc3O2)cc1C` (centres undefined), 1090 s; in that of `Cc1cc(C)n(CCNC(=O)c2ccc(N3CCOCC3)nn2)n1`, 572 s.

`Cc1ccc(CNC(=O)C2(C)CCN(C(=O)Nc3cccc(Cl)c3C)CC2)cc1` returned an RP-LC retention time of 717 s. In the case of `CCC(=O)N1CCc2c(C(=O)N3CCN(c4cccc(OC)c4)CC3)cccc21` it was 819 s; in that of `Cn1c(=O)n(C)c2cc(CNc3ccc4c(c3)OCO4)ccc21`, 630 s.

`Fc1ccc(OCc2nnc3sc(CCCc4ccccc4)nn23)cc1` showed an RP-LC retention time of 1030 s.

Compound `CC(C)c1noc(C2CCCN(S(C)(=O)=O)CCC(=O)NCC2)n1` (centres undefined) displayed an RP-LC retention time of 656 s. Compound `COc1ccc2c(c1)CCc1sc(NC(=O)c3ccc(Br)cc3)nc1-2` showed an RP-LC retention time of 1190 s.

`CCOC(=O)c1c(S(=O)(=O)N2CCC(C(=O)Nc3ccccc3)CC2)c(C)n(CC)c1C` gave an RP-LC retention time of 795 s.

The compound `Cc1ccc2c(c1)N(C(=O)CSc1ccc(N3CCCC(C(=O)NC4CC4)C3)nn1)CCO2` (centres undefined) had an RP-LC retention time of 687 s. `CCOC(=O)c1[nH]c(C)c(CCC(=O)N2CCC(C(=O)NCCCN3CCCC(C)C3)CC2)c1C` (centres undefined) yielded an RP-LC retention time of 604 s. As for `Cc1nc2cc(-c3noc(-c4cccc(C(F)(F)F)c4)n3)ccc2o1`, the figure is 1220 s; as for `Cc1ccc(OCc2nnc3sc(C4COc5ccccc5O4)nn23)cc1` (centres undefined), 1010 s. As for `COc1ccc(N2C(=O)CCC(C(=O)NC3CCCCCC3)C2c2ccc(F)cc2)cc1` (centres undefined), the RP-LC retention time is 839 s.

`CC1CCCN(c2ccn3c(=O)n(CC(=O)Nc4cccc(Cl)c4)nc3n2)C1` (centres undefined) came in with an RP-LC retention time of 835 s. For `Cc1noc(-c2ccc(-n3cnc(C(=O)NCc4ccc(Cl)cc4)c3)nc2)n1`, the RP-LC retention time was 865 s. As for `O=C(NCc1ccc(Cl)cc1)C1CCN(c2cnc3nccnc3c2)CC1`, the figure is 713 s.

`CCOc1cc(=O)n2c(c1C(=O)Nc1ccc3c(c1)CCC3)CCCC2` yielded an RP-LC retention time of 815 s. As for `Cc1ccc(CNC(=O)C2CCN(c3nc4cccnc4s3)CC2)o1`, the figure is 704 s; as for `N#Cc1cccc(NC(=O)CSc2nc(N3CCc4ccccc4C3)nc3ccccc23)c1`, 862 s.

In the case of `CCOc1ccccc1-c1nc(Cc2nc(-c3ccc(OC)cc3)oc2C)no1`, the RP-LC retention time stood at 1160 s.

As to `Nc1nc(N2CCOCC2)nc2ccccc12`, the RP-LC retention time is 572 s. As for `CC(C)n1cnc2cc(CNC(=O)c3ccc(F)cc3Cl)ccc21`, the figure is 619 s; as for `CCN1CCN(c2nc(-c3cccc(C)c3)nnc2C)CC1`, 575 s. Compound `Cc1cc(N2CCCCCC2)n2nc(CN3CCN(C(C)C)CC3)nc2n1` registered an RP-LC retention time of 555 s. In the case of `COc1cccc(-c2noc(Cn3c(=O)n(-c4ccccc4C)c(=O)c4sccc43)n2)c1` it was 978 s. As for `COc1ccc(OC)c(CNC(=O)Cc2nnc(-c3ccc4ncccc4c3)o2)c1`, the figure is 688 s; as for `CC(=O)Nc1ccc(CCc2nc3ccc(C(=O)NC4CC4)cc3[nH]2)cc1`, 893 s; as for `COc1ccc(C2CC(=O)N(c3ccc(OC)cc3)C(=O)C2)cc1`, 864 s.

As for `Cc1nnc(SCC(=O)NCc2ccccc2)c2nn(-c3ccccc3)c(C)c12`, the RP-LC retention time is 643 s. As for `CCc1ccc(N2C=NS(=O)(=O)c3cccnc32)cc1`, the figure is 853 s; as for `Cc1ccc(CNC(=O)CSc2nccc(N3CCN(c4cc(C)ccc4C)CC3)n2)cc1`, 958 s; as for `Cn1c(=O)c(=O)n(C)c2cc(N3CCOCC3)c(NC(=O)C3CC3)cc21`, 623 s. `Cc1cccc(NC(=O)N2CCC(c3nc(C(=O)N4CCCC4)c(C)o3)CC2)c1C` yielded an RP-LC retention time of 781 s.

As to `COc1cccc(NC(=O)N2CCC3(CC2)NC(=O)c2ccccc2O3)c1`, the RP-LC retention time worked out at 745 s. As for `O=C(NCc1cnoc1-c1ccc(F)cc1)c1ccc2c(c1)OCO2`, the RP-LC retention time came out at 881 s. In the case of `CC(=O)N1c2ccc(S(=O)(=O)N3CCCC3)cc2CC1C(=O)N1CCN(c2ccccn2)CC1` (centres undefined) it was 609 s; in that of `Cc1cc(C)nc(SCc2nnc(SCC(=O)Nc3nccs3)o2)n1`, 600 s; in that of `C/C=C1/[C@H]2C=C(C)C[C@]1(N)c1ccc(=O)[nH]c1C2`, 589 s. With `CN(C)c1ccc(C(=O)NCC(C)(O)c2ccco2)cc1` (centres undefined), the RP-LC retention time came to 665 s.
